The values that follow come from PubChem BioAssay (NCI).

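Step 1: Grow cells in 96-well plates. Step 2: Expose to compound for 48 hours at 5 concentrations. Step 3: Interpolate endpoints linearly; if unreached, use highest concentration. The concentration for full growth arrest is given as TGI.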

In one experiment the test system is NCI-H522 lung. Put plainly: NCI tumour cell line growth inhibition, 48 h.
In turn, `COc1ccc(C(OC(C)=O)C2C(=C(C#N)C#N)c3ccccc3C2=C(C#N)C#N)cc1` (stereo unspecified) displayed a TGI greater than 100 µM.
Regarding `CC(C)(C)C(=O)OC(N)/C=C/c1ccccc1` (stereo unspecified), the TGI is greater than 100 µM.
Same read-out and setting: for `C[C@@H]1CCC2[C@@H](C)[C@@H](OCCO[C@H]3OC4O[C@@]5(C)CCC6[C@H](C)CCC([C@H]3C)[C@@]46OO5)OC3O[C@@]4(C)CCC1[C@]32OO4` (stereo partly specified) the value was greater than 100 µM.

In the next experiment the test system is NCI/ADR-RES ovarian. Put plainly: NCI tumour cell line growth inhibition, 48 h.
`Cc1ccc(-c2c3c(n(C4OC(CO)C(O)C(O)C4O)c(=S)c2C#N)CC(C)(C)CC3=O)cc1` (stereo unspecified) came in with a TGI greater than 100 µM.
On to `COc1ccc(C(OCC2OC(n3cc(C)c(=O)[nH]c3=O)CC2n2cc(Cn3cc(Br)c(=O)[nH]c3=O)nn2)(c2ccccc2)c2ccccc2)cc1` (stereo unspecified), for which the TGI is greater than 100 µM.
As for `CC(C)=C1C(=O)C[C@]2(C)C[C@H]3/C(=C(/C)CCC12)CC[C@@]3(C)O` (stereo partly specified), the TGI is greater than 50 µM.
In turn, `COc1ccc(C(OC(C)=O)C2C(=C(C#N)C#N)c3ccccc3C2=C(C#N)C#N)cc1` (stereo unspecified) came in with a TGI greater than 100 µM.
On to `CC(C)(C)C(=O)OC(N)/C=C/c1ccccc1` (stereo unspecified), for which the TGI is greater than 100 µM.
On to `C[C@@H]1CCC2[C@@H](C)[C@@H](OCCO[C@H]3OC4O[C@@]5(C)CCC6[C@H](C)CCC([C@H]3C)[C@@]46OO5)OC3O[C@@]4(C)CCC1[C@]32OO4` (stereo partly specified), for which the TGI stood at 3.14 µM.

The test system of a further experiment is OVCAR-5 ovarian. Put plainly: NCI tumour cell line growth inhibition, 48 h.
`Cc1ccc(-c2c3c(n(C4OC(CO)C(O)C(O)C4O)c(=S)c2C#N)CC(C)(C)CC3=O)cc1` (stereo unspecified) showed a TGI greater than 100 µM.
For `COc1ccc(C(OCC2OC(n3cc(C)c(=O)[nH]c3=O)CC2n2cc(Cn3cc(Br)c(=O)[nH]c3=O)nn2)(c2ccccc2)c2ccccc2)cc1` (stereo unspecified), the TGI was greater than 100 µM.
Molecule `CC(C)=C1C(=O)C[C@]2(C)C[C@H]3/C(=C(/C)CCC12)CC[C@@]3(C)O` (stereo partly specified) had a TGI greater than 50 µM.
The same measure, in the same setting: for `COc1ccc(C(OC(C)=O)C2C(=C(C#N)C#N)c3ccccc3C2=C(C#N)C#N)cc1` (stereo unspecified) the value was 38.3 µM; for `CC(C)(C)C(=O)OC(N)/C=C/c1ccccc1` (stereo unspecified), greater than 100 µM.
Molecule `C[C@@H]1CCC2[C@@H](C)[C@@H](OCCO[C@H]3OC4O[C@@]5(C)CCC6[C@H](C)CCC([C@H]3C)[C@@]46OO5)OC3O[C@@]4(C)CCC1[C@]32OO4` (stereo partly specified) yielded a TGI greater than 100 µM.

For a further experiment, the system named is OVCAR-8 ovarian. Put plainly: NCI tumour cell line growth inhibition, 48 h.
`Cc1ccc(-c2c3c(n(C4OC(CO)C(O)C(O)C4O)c(=S)c2C#N)CC(C)(C)CC3=O)cc1` (stereo unspecified) returned a TGI greater than 100 µM.
Still for that read-out and setting: to `COc1ccc(C(OCC2OC(n3cc(C)c(=O)[nH]c3=O)CC2n2cc(Cn3cc(Br)c(=O)[nH]c3=O)nn2)(c2ccccc2)c2ccccc2)cc1` (stereo unspecified) belongs greater than 100 µM.
For the molecule `CC(C)=C1C(=O)C[C@]2(C)C[C@H]3/C(=C(/C)CCC12)CC[C@@]3(C)O` (stereo partly specified), the TGI is greater than 50 µM.
The same measure, in the same setting: to `COc1ccc(C(OC(C)=O)C2C(=C(C#N)C#N)c3ccccc3C2=C(C#N)C#N)cc1` (stereo unspecified) belongs greater than 100 µM.
As for `CC(C)(C)C(=O)OC(N)/C=C/c1ccccc1` (stereo unspecified), the TGI was greater than 100 µM.
`C[C@@H]1CCC2[C@@H](C)[C@@H](OCCO[C@H]3OC4O[C@@]5(C)CCC6[C@H](C)CCC([C@H]3C)[C@@]46OO5)OC3O[C@@]4(C)CCC1[C@]32OO4` (stereo partly specified): the TGI was greater than 78.2 µM.

A further experiment relates to SF-295 CNS. Put plainly: NCI tumour cell line growth inhibition, 48 h.
On to `Cc1ccc(-c2c3c(n(C4OC(CO)C(O)C(O)C4O)c(=S)c2C#N)CC(C)(C)CC3=O)cc1` (stereo unspecified), for which the TGI is greater than 100 µM.
On the same count and under the same terms, to `COc1ccc(C(OCC2OC(n3cc(C)c(=O)[nH]c3=O)CC2n2cc(Cn3cc(Br)c(=O)[nH]c3=O)nn2)(c2ccccc2)c2ccccc2)cc1` (stereo unspecified) belongs greater than 100 µM.
On the same count and under the same terms, to `CC(C)=C1C(=O)C[C@]2(C)C[C@H]3/C(=C(/C)CCC12)CC[C@@]3(C)O` (stereo partly specified) belongs greater than 50 µM; to `COc1ccc(C(OC(C)=O)C2C(=C(C#N)C#N)c3ccccc3C2=C(C#N)C#N)cc1` (stereo unspecified), 64.6 µM; to `CC(C)(C)C(=O)OC(N)/C=C/c1ccccc1` (stereo unspecified), greater than 100 µM.
`C[C@@H]1CCC2[C@@H](C)[C@@H](OCCO[C@H]3OC4O[C@@]5(C)CCC6[C@H](C)CCC([C@H]3C)[C@@]46OO5)OC3O[C@@]4(C)CCC1[C@]32OO4` (stereo partly specified) displayed a TGI greater than 100 µM.

A further experiment has as its system SR leukemia. Put plainly: NCI tumour cell line growth inhibition, 48 h.
`Cc1ccc(-c2c3c(n(C4OC(CO)C(O)C(O)C4O)c(=S)c2C#N)CC(C)(C)CC3=O)cc1` (stereo unspecified) yielded a TGI greater than 100 µM.
On to `COc1ccc(C(OCC2OC(n3cc(C)c(=O)[nH]c3=O)CC2n2cc(Cn3cc(Br)c(=O)[nH]c3=O)nn2)(c2ccccc2)c2ccccc2)cc1` (stereo unspecified), for which the TGI is greater than 100 µM.
In turn, `CC(C)=C1C(=O)C[C@]2(C)C[C@H]3/C(=C(/C)CCC12)CC[C@@]3(C)O` (stereo partly specified) registered a TGI greater than 50 µM.
Molecule `COc1ccc(C(OC(C)=O)C2C(=C(C#N)C#N)c3ccccc3C2=C(C#N)C#N)cc1` (stereo unspecified) returned a TGI of 41 µM.
For `CC(C)(C)C(=O)OC(N)/C=C/c1ccccc1` (stereo unspecified), the TGI was greater than 100 µM.
On the same count and under the same terms, to `C[C@@H]1CCC2[C@@H](C)[C@@H](OCCO[C@H]3OC4O[C@@]5(C)CCC6[C@H](C)CCC([C@H]3C)[C@@]46OO5)OC3O[C@@]4(C)CCC1[C@]32OO4` (stereo partly specified) belongs greater than 100 µM.

For the next experiment, the system named is SW-620 colon. Put plainly: NCI tumour cell line growth inhibition, 48 h.
In the case of `Cc1ccc(-c2c3c(n(C4OC(CO)C(O)C(O)C4O)c(=S)c2C#N)CC(C)(C)CC3=O)cc1` (stereo unspecified), the TGI was greater than 100 µM.
Still for that read-out and setting: for `COc1ccc(C(OCC2OC(n3cc(C)c(=O)[nH]c3=O)CC2n2cc(Cn3cc(Br)c(=O)[nH]c3=O)nn2)(c2ccccc2)c2ccccc2)cc1` (stereo unspecified) the value was greater than 100 µM; for `CC(C)=C1C(=O)C[C@]2(C)C[C@H]3/C(=C(/C)CCC12)CC[C@@]3(C)O` (stereo partly specified), greater than 50 µM; for `COc1ccc(C(OC(C)=O)C2C(=C(C#N)C#N)c3ccccc3C2=C(C#N)C#N)cc1` (stereo unspecified), greater than 100 µM.
The molecule `CC(C)(C)C(=O)OC(N)/C=C/c1ccccc1` (stereo unspecified) yielded a TGI greater than 100 µM.
`C[C@@H]1CCC2[C@@H](C)[C@@H](OCCO[C@H]3OC4O[C@@]5(C)CCC6[C@H](C)CCC([C@H]3C)[C@@]46OO5)OC3O[C@@]4(C)CCC1[C@]32OO4` (stereo partly specified) showed a TGI greater than 100 µM.

In a further experiment the test system is TK-10 renal. Put plainly: NCI tumour cell line growth inhibition, 48 h.
Take `Cc1ccc(-c2c3c(n(C4OC(CO)C(O)C(O)C4O)c(=S)c2C#N)CC(C)(C)CC3=O)cc1` (stereo unspecified): the TGI was greater than 100 µM.
For the molecule `COc1ccc(C(OCC2OC(n3cc(C)c(=O)[nH]c3=O)CC2n2cc(Cn3cc(Br)c(=O)[nH]c3=O)nn2)(c2ccccc2)c2ccccc2)cc1` (stereo unspecified), the TGI was greater than 100 µM.
`CC(C)=C1C(=O)C[C@]2(C)C[C@H]3/C(=C(/C)CCC12)CC[C@@]3(C)O` (stereo partly specified) showed a TGI greater than 50 µM.
`COc1ccc(C(OC(C)=O)C2C(=C(C#N)C#N)c3ccccc3C2=C(C#N)C#N)cc1` (stereo unspecified) had a TGI greater than 100 µM.
`C[C@@H]1CCC2[C@@H](C)[C@@H](OCCO[C@H]3OC4O[C@@]5(C)CCC6[C@H](C)CCC([C@H]3C)[C@@]46OO5)OC3O[C@@]4(C)CCC1[C@]32OO4` (stereo partly specified) yielded a TGI greater than 100 µM.

The next experiment deals with U251 CNS. Put plainly: NCI tumour cell line growth inhibition, 48 h.
As for `Cc1ccc(-c2c3c(n(C4OC(CO)C(O)C(O)C4O)c(=S)c2C#N)CC(C)(C)CC3=O)cc1` (stereo unspecified), the TGI is greater than 100 µM.
In turn, `COc1ccc(C(OCC2OC(n3cc(C)c(=O)[nH]c3=O)CC2n2cc(Cn3cc(Br)c(=O)[nH]c3=O)nn2)(c2ccccc2)c2ccccc2)cc1` (stereo unspecified) returned a TGI greater than 100 µM.
Take `CC(C)=C1C(=O)C[C@]2(C)C[C@H]3/C(=C(/C)CCC12)CC[C@@]3(C)O` (stereo partly specified): the TGI was greater than 50 µM.
Regarding `COc1ccc(C(OC(C)=O)C2C(=C(C#N)C#N)c3ccccc3C2=C(C#N)C#N)cc1` (stereo unspecified), the TGI is greater than 100 µM.
For `CC(C)(C)C(=O)OC(N)/C=C/c1ccccc1` (stereo unspecified), the TGI was greater than 100 µM.
In turn, `C[C@@H]1CCC2[C@@H](C)[C@@H](OCCO[C@H]3OC4O[C@@]5(C)CCC6[C@H](C)CCC([C@H]3C)[C@@]46OO5)OC3O[C@@]4(C)CCC1[C@]32OO4` (stereo partly specified) yielded a TGI greater than 100 µM.

The test system of the next experiment is UACC-257 melanoma. Put plainly: NCI tumour cell line growth inhibition, 48 h.
`Cc1ccc(-c2c3c(n(C4OC(CO)C(O)C(O)C4O)c(=S)c2C#N)CC(C)(C)CC3=O)cc1` (stereo unspecified) registered a TGI greater than 100 µM.
The molecule `COc1ccc(C(OCC2OC(n3cc(C)c(=O)[nH]c3=O)CC2n2cc(Cn3cc(Br)c(=O)[nH]c3=O)nn2)(c2ccccc2)c2ccccc2)cc1` (stereo unspecified) came in with a TGI greater than 100 µM.
Molecule `CC(C)=C1C(=O)C[C@]2(C)C[C@H]3/C(=C(/C)CCC12)CC[C@@]3(C)O` (stereo partly specified) displayed a TGI greater than 50 µM.
`COc1ccc(C(OC(C)=O)C2C(=C(C#N)C#N)c3ccccc3C2=C(C#N)C#N)cc1` (stereo unspecified): the TGI is greater than 100 µM.
On the same count and under the same terms, for `CC(C)(C)C(=O)OC(N)/C=C/c1ccccc1` (stereo unspecified) the value was greater than 100 µM; for `C[C@@H]1CCC2[C@@H](C)[C@@H](OCCO[C@H]3OC4O[C@@]5(C)CCC6[C@H](C)CCC([C@H]3C)[C@@]46OO5)OC3O[C@@]4(C)CCC1[C@]32OO4` (stereo partly specified), greater than 100 µM.
